Data from patent US20090318491A1 (priority 2006, published 2009).
Where two headings read alike, the source gives them in different places.

Tests used:
hα4β2 = molecular target: T1, hα4β2 (Homo sapiens, UniProt P17787+P43681); details: HEK293 cells; cited from earlier work
T1 construct: expressed in transfected cells; host or cells: HEK293 cells

(α1)2β1γδ nAChR = molecular target: T2, (α1)2β1γδ nAChR (Tetronarce californica, UniProt P02710+P02714+P02718); assay: biochemical; type: binding, Torpedo californica
T2 construct: 100 μL of the Torpedo californica electroplax fraction (60-70 μg); from tissue; host or cells: Torpedo californica electric organ (electroplax) membranes
Description: Preparation of Torpedo californica Electroplax
Frozen samples of Torpedo californica electric organ (−80° C.) were placed on ice for 30-60 min and allowed to thaw slowly before the membrane preparation. The tissue was homogenised in an ice-cold HSS-buffer (Ultraturrax at 750 rpm) and centrifuged (30,000×g, 10 min, 4° C.). The pellets were collected, washed four times with HSS-buffer through re-homogenization and centrifugation at the same settings. The remaining pellets were collected, re-suspended in HSS and stored in aliquots at −80° C.
One hour before the experiments the tissues were slowly thawed, homogenised in HSS-buffer and centrifuged (25,000×g, 20 min, 4° C.). The pellets were re-suspended in fresh HSS-buffer and used for radioligand binding assays.
Competition Assay Using (±)-[^3H]Epibatidine ([^3H]Epi) and Torpedo californica Electroplax ((α1)2β1γδ nAChR)
(§1) A dilution row of 6-9 concentrations of the test compound was prepared. Each assay sample, with a total volume of 500 μL contained 200 μL of the test compound, 100 μL of (±)-[^3H]epibatidine and 100 μL of the Torpedo californica electroplax fraction (60-70 μg). Non-specific binding was determined in the presence of 300 μM (−)-nicotine tartrate salt. The samples were homogenised and incubated for 90 min at 22° C. The incubation was terminated by vacuum filtration through glass fibre filters pre-soaked in 1% poly(ethyleneimine). The filters were rinsed three times with TRIS-buffer, punched out and transferred into 4 mL scintillation vials. The scintillation vials were filled with scintillation cocktail (2 mL) and the radioactivity was measured using a liquid scintillation counter.
Assays were carried out in duplicates, triplicate or quadruplicates.
(§2) Biological evaluation of the compounds on various nicotinic actylcholine receptors (nAChRs) was conducted with cells described below. […] Functional agonist activity of the cytisines in cells using a fluorescence assay sensitive to changes in cytosolic calcium.

α7* nAChR = molecular target: T3, α7* nAChR (Rattus norvegicus, UniProt Q05941); assay: Competition assay using [3H]methyllycaconitine and rat brain P2-fraction; type: binding; details: preliminary results; read-out: α7* [3H]MLA rat brain Ki
T3 construct: Frozen rat brains were thawed slowly before the preparation of the P2 rat brain membrane fraction; from tissue; host or cells: rat brain P2 membrane fraction
Description: (§3) Preparation of Rat Brains
(§4) Frozen rat brains were thawed slowly before the preparation of the P2 rat brain membrane fraction (30-60 min on ice, afterwards at room temperature). […] After the determination of the wet weight (1.32 g on average), the brains were pressed into a pulp using a syringe and homogenised in saccharose buffer with a glass teflon homogenizator (Potter, 10 seconds). The tissue was then centrifuged (1,000×g, 20 min, 4° C.), the supernatant (S1) aspirated with a Pasteur pipette and stored on ice. The P1 pellet was re-suspended in saccharose buffer and the centrifugation was repeated. The supernatant S1′ was collected and added to the supernatant S1. The combined supernatants were centrifuged (25,000×g, 20 min, 4° C.), the supernatant S2 was removed and the pellet P2 collected and diluted with HSS-buffer. The buffer volume added was calculated on the basis of the wet weight in a ratio 1:2.
(§5) The final pellet was stored in aliquots at −80° C. On the day of the experiment, the P2 membrane fraction was thawed, diluted with HSS-buffer (30-fold volume), homogenised and centrifuged (35,000×g, 10 min, 4° C.). The collected pellet was suspended in HSS-buffer and used in the radioligand binding experiments.
Competition Assay Using [^3H]Methyllycaconitine ([^3H]MLA) and Rat Brain P2-Fraction (α7*nAChR)
A dilution row of 6-9 concentrations of the test compound was prepared. Each assay sample, with a total volume of 250 μL contained 50 μL of the test compound, 100 μL of [^3H]MLA and 100 μL of the P2-membrane protein fraction (60-70 μg). Non-specific binding was determined in the presence of 1 μM MLA. The samples were homogenised and incubated for 120 min at 22° C. The incubation was terminated by vacuum filtration through glass fibre filters pre-soaked in 1% poly(ethyleneimine). The filters were rinsed three times with TRIS-buffer, punched out and transferred into 4 mL scintillation vials. The scintillation vials were filled with scintillation cocktail (2 mL) and the radioactivity was measured using a liquid scintillation counter.
Assays were carried out in duplicates, triplicates or quadruplicates.

α3β4* nAChR = molecular target: T4, α3β4* nAChR (Bos taurus, UniProt Q07263+Q8SPU6); assay: biochemical; type: binding, calf
T4 construct: 100 μL of the calf adrenal membrane protein fraction (60-70 μg); from tissue; host or cells: calf adrenals, membrane fraction
Description: Preparation of Calf Adrenals
Frozen calf adrenals (−80° C.) were placed on ice for 30-60 min and allowed to thaw slowly before they were cut into small pieces. After determination of the wet weight (4-6 g), the tissue was homogenised in HSS-buffer (Ultraturrax at 750 rpm). The homogenate was centrifuged (30,000×g, 10 min, 4° C.), the pellets collected and washed. This procedure was repeated five times. The buffer volume used to re-suspend the pellets was calculated on the basis of the wet weight in a ratio 1:6.5.
The prepared tissues were stored in aliquots at −80° C. One hour before the experiments the tissues were slowly thawed, homogenised in HSS-buffer and centrifuged (25,000×g, 20 min, 4° C.). The pellets were re-suspended in fresh HSS-buffer and used for radioligand binding assays.
Competition Assay Using (±)-[^3H]Epibatidine ([^3H]Epi) and Calf Adrenals Membrane Fraction (α3β4*nAChR)
Each assay sample, with a total volume of 500 μL contained 200 μL of the test compound, 100 μL of (±)-[^3H]epibatidine, 100 μL of the calf adrenal membrane protein fraction (60-70 μg) and 100 μM of HSS-buffer. Non-specific binding was determined in the presence of 300 μM (−)-nicotine tartrate salt. The samples were homogenised and incubated for 90 min at 22° C. The incubation was terminated by vacuum filtration through glass fibre filters presoaked in 1% poly(ethyleneimine). The filters were rinsed three times with TRIS-buffer, punched out and transferred into 4 mL scintillation vials. The scintillation vials were filled with scintillation cocktail (2 mL) and the radioactivity was measured using a liquid scintillation counter.

α4β2* nAChR = molecular target: T5, α4β2* nAChR (Rattus norvegicus, UniProt P09483+P12390); assay: biochemical; type: binding
T5 construct: Frozen rat brains were thawed slowly before the preparation of the P2 rat brain membrane fraction; from tissue; host or cells: rat brain (without cerebellum and medulla), P2 membrane fraction
Description: as §3, §4, §5
Competition Assay Using (±)-[^3H]Epibatidine ([^3H]Epi) and Rat Brain P2-Fraction (α4β2*nAChR)
as §1, with “contained 100 μL of the membrane protein (60 μg), 100 μL of (±)-[^3H]epibatidine (0.5 nM), 100 μL of HSS-buffer and” for “contained”, “test compound” for “test compound, 100 μL of (±)-[^3H]epibatidine and 100 μL of the Torpedo californica electroplax fraction (60-70 μg).”, “The filter” for “The filters”
Assays were carried out in duplicate, triplicates or quadruplicates.
as §2

C57BL/6J male mice [1] = type: in vivo
From the text: Subjects were 12-week old male C57BL/6J mice (The Jackson Laboratory, Bar Harbor Me.). Subjects were housed 5 per cage under standardized conditions (12:12 light cycle with lights on at 7:00 am) and were allowed at least 7 days of rest before testing. Food and water were available ad libitum.
Placebo cage-mate controls received an injection of saline.
The tail suspension test took place between 2:00 pm and 5:00 pm. […] Immediately after injection, each animal was placed in a clean cage and transferred to the testing room.
Approximately 1 cm from the end, each mouse's tail was taped (Scotch 35 Vinyl Electrical Tape) to a paperclip. Mice were suspended by the tail approximately 80 cm above the floor and the duration of immobility, defined as the absence of all movement except for those required for respiration, was recorded by an observer for 6 minutes. The animals were then returned to the holding room.

C57BL/6J male mice [2] = details: acute i.p. injection of cytisine, FIG. 1
Description: C57BL/6J male mice, 34 months of age were used in these experiments. […] At 15 minutes, the mice were subject to a forced swim test (FST) and a recorded of immobility (time and patters) was provided. Control behavior was provided by testing locomotor activity at 20 minutes in an open field.

C57BL/6J male mice [3] = details: 21 days i.p. treatment, 24 hour food deprivation, FIG. 1
Description: A novelty-suppressed feeding test (NSFT) was conducted consisting of a 24 hour food deprivation, and a recording of the time to initiate a first feeding episode in an open-field, with controls for appetite and motivation (measure of weight loss and food intake).

c-fos = details: brain regions, FIG. 2
C57BL/6J male mice [4] = details: cytisine + 5HT1A/7 agonist 8OHDPAT

T4 sequence (Q07263 22-495): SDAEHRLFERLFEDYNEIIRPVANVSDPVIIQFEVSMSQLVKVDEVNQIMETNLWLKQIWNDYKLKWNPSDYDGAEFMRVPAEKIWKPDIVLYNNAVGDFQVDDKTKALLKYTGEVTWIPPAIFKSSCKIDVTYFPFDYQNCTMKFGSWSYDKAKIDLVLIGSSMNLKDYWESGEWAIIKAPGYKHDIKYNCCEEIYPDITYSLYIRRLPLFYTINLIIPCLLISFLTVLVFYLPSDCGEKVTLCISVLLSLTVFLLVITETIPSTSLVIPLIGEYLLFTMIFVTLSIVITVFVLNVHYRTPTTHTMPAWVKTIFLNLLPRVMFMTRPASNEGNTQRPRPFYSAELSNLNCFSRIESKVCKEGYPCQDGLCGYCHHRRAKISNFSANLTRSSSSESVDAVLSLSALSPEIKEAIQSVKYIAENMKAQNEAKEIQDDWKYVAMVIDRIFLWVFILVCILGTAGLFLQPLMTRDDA
T4 sequence (Q8SPU6 20-496): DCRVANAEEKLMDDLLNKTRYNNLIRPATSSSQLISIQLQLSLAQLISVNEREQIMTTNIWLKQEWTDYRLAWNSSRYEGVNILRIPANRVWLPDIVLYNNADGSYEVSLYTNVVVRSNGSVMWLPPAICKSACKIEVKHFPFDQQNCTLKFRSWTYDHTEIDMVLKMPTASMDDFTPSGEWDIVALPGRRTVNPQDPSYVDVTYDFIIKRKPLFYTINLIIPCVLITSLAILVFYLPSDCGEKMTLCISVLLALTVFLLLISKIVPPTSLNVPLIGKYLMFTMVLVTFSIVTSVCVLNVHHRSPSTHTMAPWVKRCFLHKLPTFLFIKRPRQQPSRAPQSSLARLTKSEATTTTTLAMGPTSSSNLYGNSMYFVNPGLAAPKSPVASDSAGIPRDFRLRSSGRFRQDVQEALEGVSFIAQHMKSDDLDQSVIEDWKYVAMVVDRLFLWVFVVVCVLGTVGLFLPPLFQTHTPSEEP
T3 sequence (Q05941 23-502): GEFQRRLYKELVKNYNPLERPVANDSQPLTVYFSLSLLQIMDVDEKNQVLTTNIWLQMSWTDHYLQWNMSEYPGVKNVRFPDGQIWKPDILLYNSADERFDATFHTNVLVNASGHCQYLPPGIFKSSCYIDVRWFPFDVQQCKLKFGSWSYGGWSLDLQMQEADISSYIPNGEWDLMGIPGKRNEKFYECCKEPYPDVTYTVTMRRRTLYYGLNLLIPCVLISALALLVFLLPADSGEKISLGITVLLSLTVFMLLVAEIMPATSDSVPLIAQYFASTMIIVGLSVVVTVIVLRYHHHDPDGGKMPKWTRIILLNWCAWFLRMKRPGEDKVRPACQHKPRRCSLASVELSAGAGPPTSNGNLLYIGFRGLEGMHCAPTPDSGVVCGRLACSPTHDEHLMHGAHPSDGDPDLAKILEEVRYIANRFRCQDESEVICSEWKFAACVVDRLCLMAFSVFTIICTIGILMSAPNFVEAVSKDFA
T2 sequence (P02710 25-461): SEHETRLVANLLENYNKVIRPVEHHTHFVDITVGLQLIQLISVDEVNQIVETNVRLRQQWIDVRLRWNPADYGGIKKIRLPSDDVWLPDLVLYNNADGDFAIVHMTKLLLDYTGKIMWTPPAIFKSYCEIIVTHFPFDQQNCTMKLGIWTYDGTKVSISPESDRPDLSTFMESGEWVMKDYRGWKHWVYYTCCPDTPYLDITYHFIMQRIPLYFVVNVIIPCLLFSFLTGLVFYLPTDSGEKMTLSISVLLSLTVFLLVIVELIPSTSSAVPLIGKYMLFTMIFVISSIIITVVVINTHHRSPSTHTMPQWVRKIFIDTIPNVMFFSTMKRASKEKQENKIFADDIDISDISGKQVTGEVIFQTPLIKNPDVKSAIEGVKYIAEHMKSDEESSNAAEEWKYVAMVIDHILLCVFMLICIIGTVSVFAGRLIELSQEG
T2 sequence (P02712 25-493, further chain): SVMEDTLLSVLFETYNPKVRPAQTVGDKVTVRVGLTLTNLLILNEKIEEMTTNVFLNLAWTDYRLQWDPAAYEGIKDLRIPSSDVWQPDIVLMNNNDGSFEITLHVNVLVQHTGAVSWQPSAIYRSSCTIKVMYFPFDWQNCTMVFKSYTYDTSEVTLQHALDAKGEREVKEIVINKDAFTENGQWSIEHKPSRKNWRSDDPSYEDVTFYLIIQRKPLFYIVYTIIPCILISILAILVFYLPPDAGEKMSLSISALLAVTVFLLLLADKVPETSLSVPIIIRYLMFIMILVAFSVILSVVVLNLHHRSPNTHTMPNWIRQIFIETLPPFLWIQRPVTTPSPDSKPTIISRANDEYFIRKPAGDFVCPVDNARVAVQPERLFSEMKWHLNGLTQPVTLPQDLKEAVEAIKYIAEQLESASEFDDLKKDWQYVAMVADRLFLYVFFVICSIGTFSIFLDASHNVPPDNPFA
T2 sequence (P02718 22-522): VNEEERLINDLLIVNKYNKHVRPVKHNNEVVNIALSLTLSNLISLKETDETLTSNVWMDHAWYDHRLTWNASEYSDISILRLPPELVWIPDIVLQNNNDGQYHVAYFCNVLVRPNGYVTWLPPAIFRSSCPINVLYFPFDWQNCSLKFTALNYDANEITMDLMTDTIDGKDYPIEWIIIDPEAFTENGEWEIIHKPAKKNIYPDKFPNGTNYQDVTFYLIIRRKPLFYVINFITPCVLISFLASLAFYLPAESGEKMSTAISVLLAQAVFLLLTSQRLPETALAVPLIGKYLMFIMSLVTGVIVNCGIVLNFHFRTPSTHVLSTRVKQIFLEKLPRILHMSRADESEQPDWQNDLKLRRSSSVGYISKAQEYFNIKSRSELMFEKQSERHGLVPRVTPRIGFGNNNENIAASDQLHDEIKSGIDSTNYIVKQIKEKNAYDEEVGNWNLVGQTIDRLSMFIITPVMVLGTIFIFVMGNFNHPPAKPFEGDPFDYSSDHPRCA
T2 sequence (P02714 18-506): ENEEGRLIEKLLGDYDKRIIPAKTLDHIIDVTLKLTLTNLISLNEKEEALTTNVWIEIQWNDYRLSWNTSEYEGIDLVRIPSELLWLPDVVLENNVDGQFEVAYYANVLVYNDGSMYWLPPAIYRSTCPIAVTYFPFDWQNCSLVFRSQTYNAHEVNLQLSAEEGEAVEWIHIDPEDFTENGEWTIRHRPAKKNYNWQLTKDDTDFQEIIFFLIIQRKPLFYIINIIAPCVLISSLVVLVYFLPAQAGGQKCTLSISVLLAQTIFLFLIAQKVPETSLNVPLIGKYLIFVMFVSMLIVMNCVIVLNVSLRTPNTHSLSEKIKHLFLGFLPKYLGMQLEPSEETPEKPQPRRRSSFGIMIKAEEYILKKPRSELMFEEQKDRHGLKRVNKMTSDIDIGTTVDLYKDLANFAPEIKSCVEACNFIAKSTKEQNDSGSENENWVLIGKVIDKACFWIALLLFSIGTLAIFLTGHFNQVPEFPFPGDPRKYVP
T5 sequence (P12390 25-500): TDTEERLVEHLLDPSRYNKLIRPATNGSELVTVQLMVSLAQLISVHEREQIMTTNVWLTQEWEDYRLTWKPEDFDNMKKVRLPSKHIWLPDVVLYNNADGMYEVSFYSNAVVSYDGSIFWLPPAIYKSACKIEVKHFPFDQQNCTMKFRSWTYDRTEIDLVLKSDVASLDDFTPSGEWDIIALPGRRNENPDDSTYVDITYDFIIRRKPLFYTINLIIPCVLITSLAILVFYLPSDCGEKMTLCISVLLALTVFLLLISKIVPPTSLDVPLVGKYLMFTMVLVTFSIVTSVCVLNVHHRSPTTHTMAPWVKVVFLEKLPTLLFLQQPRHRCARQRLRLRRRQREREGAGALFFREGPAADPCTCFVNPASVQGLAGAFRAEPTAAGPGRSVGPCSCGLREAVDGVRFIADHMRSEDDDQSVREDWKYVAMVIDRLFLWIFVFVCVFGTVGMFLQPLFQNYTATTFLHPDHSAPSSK
T5 sequence (P09483 31-630): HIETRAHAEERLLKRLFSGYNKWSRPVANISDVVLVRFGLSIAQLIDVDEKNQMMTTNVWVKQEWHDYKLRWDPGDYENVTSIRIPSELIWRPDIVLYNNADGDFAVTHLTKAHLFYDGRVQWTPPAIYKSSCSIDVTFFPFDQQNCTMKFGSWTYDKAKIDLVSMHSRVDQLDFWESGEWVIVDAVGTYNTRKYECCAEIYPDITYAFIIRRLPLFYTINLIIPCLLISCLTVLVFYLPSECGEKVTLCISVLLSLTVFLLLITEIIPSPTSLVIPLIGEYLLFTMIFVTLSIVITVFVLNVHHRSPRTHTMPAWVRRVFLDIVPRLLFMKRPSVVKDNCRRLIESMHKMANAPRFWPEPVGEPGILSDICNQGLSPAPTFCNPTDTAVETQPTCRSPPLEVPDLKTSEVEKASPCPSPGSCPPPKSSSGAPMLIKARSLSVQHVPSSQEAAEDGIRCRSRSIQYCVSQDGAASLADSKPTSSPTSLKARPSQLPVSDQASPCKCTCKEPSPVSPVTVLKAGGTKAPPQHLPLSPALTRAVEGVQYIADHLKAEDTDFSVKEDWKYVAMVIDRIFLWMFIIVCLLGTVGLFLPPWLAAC

Structure (SMILES)	Ki ((α1)2β1γδ nAChR) [nM]	Ki (α7* nAChR) [nM]	Ki (α3β4* nAChR) [nM]	Ki (α4β2* nAChR) [nM]	other results
c1ccc(-c2ccc3c(c2)CC2CNCC3C2)cc1 (stereo not shown) [57j]					Ki (hα4β2): 500 nM
Nc1cccc(-c2ccc3c(c2)CC2CNCC3C2)c1 (stereo not shown) [57m]					Ki (hα4β2): 500 nM
O=c1ccc(-c2cccc(-c3ccccc3)c2)c2n1C[C@@H]1CNC[C@H]2C1 [110e, 5-(Biphenyl-3′-yl)-cytisine]	> 10000	> 10000	> 10000	190	
O=c1c(-c2ccc3[nH]ccc3c2)ccc2n1C[C@@H]1CNC[C@H]2C1 [117e, 3-(1H-Indol-5′-yl)-cytisine]	> 10000	> 10000	> 10000	853	
O=c1c(-c2cccc3cccnc23)ccc2n1C[C@@H]1CNC[C@H]2C1 [121e, 3-Quinolin-8′-yl-cytisine]	> 10000	> 10000	> 10000	95	
Cn1cc(-c2ccc3n(c2=O)CC2CNCC3C2)cn1 (stereo not shown) [122e, 3-(1-Methyl-1H-pyrazol-4′-yl)-cytisine]	> 5000	> 10000	33	0.177	
O=c1ccc(-c2ccc3[nH]ccc3c2)c2n1C[C@@H]1CNC[C@H]2C1 [123e, (1H-Indol-5′-yl)-cytisine]	> 10000	> 10000	> 10000	20.4	
O=c1ccc(-c2ccc3c(c2)OCO3)c2n1C[C@@H]1CNC[C@H]2C1 [124e, 5-(3′,4′-Methylenedioxy-phenyl)-cytisine]	> 10000	> 10000	> 10000	96	
O=c1ccc(-c2cccnc2)c2n1C[C@@H]1CNC[C@H]2C1 [125e, 5-(Pyridin-3′-yl)-cytisine]	> 10000	> 10000	4300	10.9	
Cn1cc(-c2ccc(=O)n3c2[C@H]2CNC[C@H](C2)C3)cn1 [126e, 5-(1-Methyl-1H-pyrazol-4′-yl)-cytisine]	> 10000	> 10000	656	2.2	
O=c1c(-c2ccccc2)cc(Br)c2n1C[C@@H]1CNC[C@H]2C1 [128e, 5-Bromo-3-phenyl-cytisine]	> 10000	> 10000	> 5000	131	
O=c1c(-c2cccnc2)cc(Br)c2n1C[C@@H]1CNC[C@H]2C1 [129e, 5-Bromo-3-(pyridin-3′-yl)-cytisine]	> 10000	> 10000	> 2000	92	
O=c1c(-c2cccnc2)ccc2n1CC1CNCC2C1 (stereo not shown) [compound 1]					mean duration of immobility in tail suspension test (C57BL/6J male mice [1]; acute i.p., […] (1.5 mg/kg elsewhere in the source), 45 minutes after injection, vs saline, p=0.014, FIG. 3): significantly less mobile
O=c1cccc2n1C[C@@H]1CNC[C@H]2C1 [compound 27, 1,2,3,4,5,6-hexahydro-1,5-methano-pyrido[1,2-a][1,5]diazocin-8-one]	1300		19	0.122	immobility in tail suspension test (C57BL/6J male mice [1]; acute i.p. injection of cytisine, FIG. 1): generalized antidepressant-like profile; immobility in tail suspension test (C57BL/6J male mice [1]; cytisine, doses lower than 1 mg/kg): did not yield any significant effects; immobility in forced swim test (C57BL/6J male mice [2]): generalized antidepressant-like profile; time to initiate first feeding episode in novelty-suppressed feeding test (C57BL/6J male mice [3]): generalized antidepressant-like profile; neuronal activity (c-fos immunostaining) (c-fos): Reductions of neuronal activity in the amygdala, hypothalamus and in the nucleus accumbens; potentiation of cytisine effects (C57BL/6J male mice [4]): potentiation
